Where only a bound is given, the exact number is not on record here.

The record followed here is patent US7074789B2, “Kinase inhibitors” (Amgen Inc., priority 1999, dated 2006).

Holding throughout (type): biochemical
One assay addresses T1, Kdr (Homo sapiens, UniProt P35968).
T1 construct: Kinases are expressed as either kinase domains or full length constructs; made in house
In words: Kinase inhibition assay (33P transfer), Kdr. As to conditions: read-out: KDR-1. In a few lines: (§1)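 Filterless plate radiometric format: immobilized poly(Glu,Tyr) 4:1 or poly(Arg,Ser) 3:1, 33P-labelled ATP, tagged recombinant kinase (some with regulatory partners). Incorporated label counted after phosphoric acid wash.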

The next assay addresses T2, Itk (Homo sapiens, UniProt Q08881).
T2 construct: Kinases are expressed as either kinase domains or full length constructs; made in house
T2 sequence (Q08881 1-620): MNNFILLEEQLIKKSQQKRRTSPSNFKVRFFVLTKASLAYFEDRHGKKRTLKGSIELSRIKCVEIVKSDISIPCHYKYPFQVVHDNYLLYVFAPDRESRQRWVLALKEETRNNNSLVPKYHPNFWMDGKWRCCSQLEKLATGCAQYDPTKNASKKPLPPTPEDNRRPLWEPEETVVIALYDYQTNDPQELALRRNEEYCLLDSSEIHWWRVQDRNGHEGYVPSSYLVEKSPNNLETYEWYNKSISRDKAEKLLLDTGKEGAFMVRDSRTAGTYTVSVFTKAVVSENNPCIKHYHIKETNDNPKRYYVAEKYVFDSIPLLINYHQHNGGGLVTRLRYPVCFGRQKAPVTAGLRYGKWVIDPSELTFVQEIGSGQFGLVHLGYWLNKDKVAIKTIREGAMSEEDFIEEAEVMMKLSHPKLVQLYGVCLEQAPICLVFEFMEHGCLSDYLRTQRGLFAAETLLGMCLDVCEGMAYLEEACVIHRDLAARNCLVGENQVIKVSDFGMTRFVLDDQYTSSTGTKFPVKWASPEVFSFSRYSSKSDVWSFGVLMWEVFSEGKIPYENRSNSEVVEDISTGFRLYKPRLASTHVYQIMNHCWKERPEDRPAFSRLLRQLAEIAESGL
The assay is described as follows: Kinase inhibition assay (33P transfer), Itk. As to conditions: read-out: Itk-1. In a few lines: (§2)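 Read-out: scintillation counts of 33P moved from ATP onto synthetic peptide polymer coated on the well surface, after washing with 0.5% phosphoric acid. Enzymes were tagged (GST or polyHistidine) and came from bacterial or insect-cell expression. IC50 marks 50% loss of incorporated label.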

For the next assay, the target named is T3, FGFR1 (Homo sapiens, UniProt P11362).
T3 construct: Kinases are expressed as either kinase domains or full length constructs; made in house
In words: Kinase inhibition assay (33P transfer), FGFR1. To be noted: read-out: FGFR1-1.

Another assay deals with T4, Src (Homo sapiens, UniProt P12931).
T4 construct: Kinases are expressed as either kinase domains or full length constructs; made in house
The assay is described as follows: Kinase inhibition assay (33P transfer), Src. As to conditions: Table 6, Src-1 kinase inhibition class. A digest of the protocol:
as §2

Another assay has as its target T5, Hck-1 (Homo sapiens, UniProt P08631).
T5 construct: Kinases are expressed as either kinase domains or full length constructs; made in house
The assay is described as follows: Kinase inhibition assay (33P transfer), Hck. To be noted: Table 6, Hck-1 kinase inhibition class.

Another assay has as its target T6, EGFR (Homo sapiens, UniProt P00533).
T6 construct: Kinases are expressed as either kinase domains or full length constructs; made in house
The assay is described as follows: Kinase inhibition assay (33P transfer), EGFR. As to conditions: Table 2, kinase inhibition class; read-out: EGFR-1. In a few lines:
as §2

A further assay concerns the target T7, Fyn (Homo sapiens, UniProt P06241).
T7 construct: Kinases are expressed as either kinase domains or full length constructs; made in house
In words: Kinase inhibition assay (33P transfer), Fyn. As to conditions: read-out: Fyn-1. A digest of the protocol:
as §2

In a further assay the target is T8, IGFR-1 (Homo sapiens, UniProt P08069).
T8 construct: Kinases are expressed as either kinase domains or full length constructs; made in house
The assay is described as follows: Kinase inhibition assay, IGFR-1 (Table 2). As to conditions: Table 2, kinase inhibition class.

Another assay addresses T9, Lyn (Homo sapiens, UniProt P07948).
T9 construct: Kinases are expressed as either kinase domains or full length constructs; made in house
The assay is described as follows: Kinase inhibition assay (33P transfer), Lyn. As to conditions: Table 6, Lyn-1 kinase inhibition class. In a few lines: as §2

In a further assay the target is T10, Flt-1 (Homo sapiens, UniProt P17948).
T10 construct: Kinases are expressed as either kinase domains or full length constructs; made in house
In words: Kinase inhibition assay (33P transfer), Flt-1. In a few lines:
as §2

In a further assay the target is T11, ErbB4 (Homo sapiens, UniProt Q15303).
T11 construct: Kinases are expressed as either kinase domains or full length constructs; made in house
The assay is described as follows: Kinase inhibition assay (33P transfer), ErbB4. To be noted: read-out: ErbB4-1.

Another assay addresses T12, Lck (Homo sapiens, UniProt P06239).
T12 construct: Kinases are expressed as either kinase domains or full length constructs; made in house
In words: Kinase inhibition assay (33P transfer), Lck. To be noted: read-out: Lck-1. A digest of the protocol: as §1

The next assay deals with T13, c-Met (Homo sapiens, UniProt P08581).
T13 construct: Kinases are expressed as either kinase domains or full length constructs; made in house
In words: Kinase inhibition assay (33P transfer), c-Met. To be noted: Table 2, kinase inhibition class; read-out: Met-1. A digest of the protocol:
as §2

The target in another assay is T14, Zap-70 (Homo sapiens, UniProt P43403).
T14 construct: Kinases are expressed as either kinase domains or full length constructs; made in house
T14 sequence (P43403 1-619): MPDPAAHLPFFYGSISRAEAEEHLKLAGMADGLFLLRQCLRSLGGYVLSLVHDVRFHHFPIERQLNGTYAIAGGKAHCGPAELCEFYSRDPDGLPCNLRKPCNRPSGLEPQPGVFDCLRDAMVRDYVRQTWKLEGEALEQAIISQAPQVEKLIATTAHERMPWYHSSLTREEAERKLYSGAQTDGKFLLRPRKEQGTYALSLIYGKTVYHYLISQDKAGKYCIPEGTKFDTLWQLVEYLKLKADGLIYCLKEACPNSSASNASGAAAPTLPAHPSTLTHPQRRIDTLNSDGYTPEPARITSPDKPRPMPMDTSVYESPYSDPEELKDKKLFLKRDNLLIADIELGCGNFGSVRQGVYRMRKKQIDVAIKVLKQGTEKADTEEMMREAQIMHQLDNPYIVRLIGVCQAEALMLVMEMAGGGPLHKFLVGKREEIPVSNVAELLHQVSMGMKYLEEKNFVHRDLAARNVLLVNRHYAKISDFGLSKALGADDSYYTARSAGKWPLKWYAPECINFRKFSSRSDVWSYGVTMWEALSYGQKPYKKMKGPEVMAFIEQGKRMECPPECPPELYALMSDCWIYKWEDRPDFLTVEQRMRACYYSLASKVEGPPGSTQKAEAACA
The assay is described as follows: Kinase inhibition assay (33P transfer), Zap-70. To be noted: read-out: Zap-1. In a few lines:
as §1

Another assay deals with T15, Ret-1 (Homo sapiens, UniProt P07949).
T15 construct: Kinases are expressed as either kinase domains or full length constructs; made in house
The assay is described as follows: Kinase inhibition assay (33P transfer), Ret. As to conditions: Table 6, Ret-1 kinase inhibition class.

Another assay concerns the target T16, ErbB2 (Homo sapiens, UniProt P04626).
T16 construct: Kinases are expressed as either kinase domains or full length constructs; made in house
In words: Kinase inhibition assay (33P transfer), ErbB2. As to conditions: read-out: ErbB2-2. A digest of the protocol:
as §2

The target in another assay is T17, AKT (Homo sapiens, UniProt Q9Y243).
T17 construct: Kinases are expressed as either kinase domains or full length constructs; made in house
The assay is described as follows: Kinase inhibition assay (33P transfer), AKT. As to conditions: Table 2, kinase inhibition class; read-out: AKT3-1. A digest of the protocol:
as §1

A further assay has as its target T18, Tek (Homo sapiens, UniProt Q02763).
T18 construct: Kinases are expressed as either kinase domains or full length constructs; made in house
In words: Kinase inhibition assay (33P transfer), Tek. As to conditions: read-out: Tek-1. In a few lines:
as §2

The next assay deals with T19, PDGFRB (Homo sapiens, UniProt P09619).
T19 construct: Kinases are expressed as either kinase domains or full length constructs; made in house
The assay is described as follows: Kinase inhibition assay (33P transfer), PDGFRB. To be noted: read-out: PDGFRB-1.

T4 sequence (P12931 whole entry, species assumed, the tested form may be a part): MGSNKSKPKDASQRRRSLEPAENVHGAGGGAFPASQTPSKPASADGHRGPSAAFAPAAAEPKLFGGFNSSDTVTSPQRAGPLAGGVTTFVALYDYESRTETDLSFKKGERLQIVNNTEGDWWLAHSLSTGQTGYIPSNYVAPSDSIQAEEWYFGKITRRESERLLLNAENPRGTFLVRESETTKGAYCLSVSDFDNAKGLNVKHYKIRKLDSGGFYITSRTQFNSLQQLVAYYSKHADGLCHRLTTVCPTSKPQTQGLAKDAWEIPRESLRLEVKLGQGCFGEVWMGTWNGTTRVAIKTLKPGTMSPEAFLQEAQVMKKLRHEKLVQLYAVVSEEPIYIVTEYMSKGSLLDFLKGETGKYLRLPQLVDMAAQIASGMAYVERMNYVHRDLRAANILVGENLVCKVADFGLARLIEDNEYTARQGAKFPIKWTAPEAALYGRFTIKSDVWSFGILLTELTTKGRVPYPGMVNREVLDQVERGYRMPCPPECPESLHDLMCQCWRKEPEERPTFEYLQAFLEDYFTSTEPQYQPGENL
T17 sequence (Q9Y243 whole entry, the tested form may be a part): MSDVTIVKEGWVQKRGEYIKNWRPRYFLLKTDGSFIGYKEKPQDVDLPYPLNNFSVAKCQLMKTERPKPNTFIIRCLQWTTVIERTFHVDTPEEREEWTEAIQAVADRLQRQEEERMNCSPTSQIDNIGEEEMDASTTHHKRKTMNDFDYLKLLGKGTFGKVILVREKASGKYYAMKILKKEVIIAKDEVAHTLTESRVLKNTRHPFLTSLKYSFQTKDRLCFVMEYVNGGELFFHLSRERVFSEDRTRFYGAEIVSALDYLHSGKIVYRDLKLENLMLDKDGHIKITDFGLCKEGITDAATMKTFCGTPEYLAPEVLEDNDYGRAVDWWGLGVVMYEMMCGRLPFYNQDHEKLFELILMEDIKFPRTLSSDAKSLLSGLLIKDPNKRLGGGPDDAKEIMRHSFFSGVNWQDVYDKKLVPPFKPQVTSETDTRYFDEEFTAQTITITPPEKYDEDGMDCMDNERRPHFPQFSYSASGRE
T10 sequence (P17948 27-1338, species assumed): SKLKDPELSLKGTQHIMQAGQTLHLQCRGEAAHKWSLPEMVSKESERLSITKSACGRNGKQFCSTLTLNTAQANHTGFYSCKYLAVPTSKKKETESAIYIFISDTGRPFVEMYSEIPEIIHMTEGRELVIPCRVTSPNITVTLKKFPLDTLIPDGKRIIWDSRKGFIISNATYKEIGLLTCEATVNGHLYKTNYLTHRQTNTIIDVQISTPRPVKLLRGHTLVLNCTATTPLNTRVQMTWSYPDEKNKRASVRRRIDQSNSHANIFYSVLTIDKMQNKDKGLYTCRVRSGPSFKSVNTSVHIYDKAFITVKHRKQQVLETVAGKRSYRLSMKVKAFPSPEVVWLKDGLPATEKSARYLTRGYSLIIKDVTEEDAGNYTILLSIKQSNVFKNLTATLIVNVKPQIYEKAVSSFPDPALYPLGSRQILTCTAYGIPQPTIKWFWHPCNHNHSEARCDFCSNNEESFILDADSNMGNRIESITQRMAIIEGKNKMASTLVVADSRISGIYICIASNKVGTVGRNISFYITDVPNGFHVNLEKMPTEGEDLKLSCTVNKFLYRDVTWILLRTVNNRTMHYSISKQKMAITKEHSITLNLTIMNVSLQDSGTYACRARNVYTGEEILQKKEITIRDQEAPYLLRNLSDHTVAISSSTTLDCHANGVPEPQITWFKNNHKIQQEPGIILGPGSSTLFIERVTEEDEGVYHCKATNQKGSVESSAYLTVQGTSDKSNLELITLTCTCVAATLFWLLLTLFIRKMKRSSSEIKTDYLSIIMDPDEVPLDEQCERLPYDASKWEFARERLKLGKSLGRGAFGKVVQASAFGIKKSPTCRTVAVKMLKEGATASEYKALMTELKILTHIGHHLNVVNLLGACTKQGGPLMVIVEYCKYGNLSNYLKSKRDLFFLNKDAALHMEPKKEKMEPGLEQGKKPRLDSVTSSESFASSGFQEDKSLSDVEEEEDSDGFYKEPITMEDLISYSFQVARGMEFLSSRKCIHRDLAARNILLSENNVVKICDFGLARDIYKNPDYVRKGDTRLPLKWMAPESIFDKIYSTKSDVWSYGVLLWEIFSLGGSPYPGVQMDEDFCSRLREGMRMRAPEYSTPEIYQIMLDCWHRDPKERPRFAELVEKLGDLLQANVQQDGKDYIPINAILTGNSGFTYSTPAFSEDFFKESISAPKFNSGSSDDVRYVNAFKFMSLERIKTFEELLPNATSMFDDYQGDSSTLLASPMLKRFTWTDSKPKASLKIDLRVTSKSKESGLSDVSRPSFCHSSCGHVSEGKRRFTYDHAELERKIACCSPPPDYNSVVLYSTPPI
T1 sequence (P35968 20-1356, species assumed): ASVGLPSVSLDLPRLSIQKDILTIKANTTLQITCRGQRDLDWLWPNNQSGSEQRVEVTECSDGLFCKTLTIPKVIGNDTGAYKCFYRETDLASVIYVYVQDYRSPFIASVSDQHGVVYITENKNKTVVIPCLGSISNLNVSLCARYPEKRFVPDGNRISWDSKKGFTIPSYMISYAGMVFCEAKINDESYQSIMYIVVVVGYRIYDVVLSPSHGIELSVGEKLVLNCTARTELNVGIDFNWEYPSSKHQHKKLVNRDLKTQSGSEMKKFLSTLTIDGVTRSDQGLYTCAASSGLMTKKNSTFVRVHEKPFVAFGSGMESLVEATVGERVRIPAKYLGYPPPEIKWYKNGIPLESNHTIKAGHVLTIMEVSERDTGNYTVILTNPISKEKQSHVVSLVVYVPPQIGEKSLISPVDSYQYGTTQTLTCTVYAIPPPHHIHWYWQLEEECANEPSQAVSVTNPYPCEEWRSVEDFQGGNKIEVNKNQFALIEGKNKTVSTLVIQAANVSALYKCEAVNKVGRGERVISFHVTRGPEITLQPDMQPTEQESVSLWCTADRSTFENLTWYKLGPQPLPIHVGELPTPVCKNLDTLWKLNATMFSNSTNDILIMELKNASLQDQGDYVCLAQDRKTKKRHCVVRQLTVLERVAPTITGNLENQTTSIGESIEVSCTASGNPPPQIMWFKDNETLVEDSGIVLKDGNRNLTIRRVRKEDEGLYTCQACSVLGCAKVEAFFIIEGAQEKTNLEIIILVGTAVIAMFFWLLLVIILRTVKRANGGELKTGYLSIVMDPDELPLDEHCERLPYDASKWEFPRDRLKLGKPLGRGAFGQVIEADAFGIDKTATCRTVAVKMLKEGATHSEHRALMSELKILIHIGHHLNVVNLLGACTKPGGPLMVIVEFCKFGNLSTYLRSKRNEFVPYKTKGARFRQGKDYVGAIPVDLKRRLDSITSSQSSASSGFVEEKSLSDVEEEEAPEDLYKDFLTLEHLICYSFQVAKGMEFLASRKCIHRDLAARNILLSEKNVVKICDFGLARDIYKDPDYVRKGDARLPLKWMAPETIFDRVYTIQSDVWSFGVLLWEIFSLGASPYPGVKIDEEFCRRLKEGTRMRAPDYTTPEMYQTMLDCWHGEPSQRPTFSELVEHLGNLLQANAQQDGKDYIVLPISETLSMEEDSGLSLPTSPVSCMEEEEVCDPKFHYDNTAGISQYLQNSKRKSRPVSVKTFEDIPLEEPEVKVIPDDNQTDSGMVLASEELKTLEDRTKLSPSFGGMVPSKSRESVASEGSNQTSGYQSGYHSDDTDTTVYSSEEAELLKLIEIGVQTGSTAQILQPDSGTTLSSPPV
T12 sequence (P06239 whole entry, species assumed, the tested form may be a part): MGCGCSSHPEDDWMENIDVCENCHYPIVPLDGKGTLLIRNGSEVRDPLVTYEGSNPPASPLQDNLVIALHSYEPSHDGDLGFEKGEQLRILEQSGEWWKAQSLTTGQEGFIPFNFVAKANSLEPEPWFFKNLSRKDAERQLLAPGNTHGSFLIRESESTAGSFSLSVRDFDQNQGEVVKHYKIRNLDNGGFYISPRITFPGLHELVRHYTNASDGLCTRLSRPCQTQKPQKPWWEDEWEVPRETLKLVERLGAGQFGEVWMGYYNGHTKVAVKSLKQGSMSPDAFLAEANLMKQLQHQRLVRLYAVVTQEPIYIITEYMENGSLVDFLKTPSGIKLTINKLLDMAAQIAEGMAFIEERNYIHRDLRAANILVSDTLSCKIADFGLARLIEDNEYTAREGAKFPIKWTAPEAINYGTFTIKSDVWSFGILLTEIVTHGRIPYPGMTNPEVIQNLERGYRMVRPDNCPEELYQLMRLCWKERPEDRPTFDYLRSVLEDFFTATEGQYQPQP
T3 sequence (P11362 22-822, species assumed): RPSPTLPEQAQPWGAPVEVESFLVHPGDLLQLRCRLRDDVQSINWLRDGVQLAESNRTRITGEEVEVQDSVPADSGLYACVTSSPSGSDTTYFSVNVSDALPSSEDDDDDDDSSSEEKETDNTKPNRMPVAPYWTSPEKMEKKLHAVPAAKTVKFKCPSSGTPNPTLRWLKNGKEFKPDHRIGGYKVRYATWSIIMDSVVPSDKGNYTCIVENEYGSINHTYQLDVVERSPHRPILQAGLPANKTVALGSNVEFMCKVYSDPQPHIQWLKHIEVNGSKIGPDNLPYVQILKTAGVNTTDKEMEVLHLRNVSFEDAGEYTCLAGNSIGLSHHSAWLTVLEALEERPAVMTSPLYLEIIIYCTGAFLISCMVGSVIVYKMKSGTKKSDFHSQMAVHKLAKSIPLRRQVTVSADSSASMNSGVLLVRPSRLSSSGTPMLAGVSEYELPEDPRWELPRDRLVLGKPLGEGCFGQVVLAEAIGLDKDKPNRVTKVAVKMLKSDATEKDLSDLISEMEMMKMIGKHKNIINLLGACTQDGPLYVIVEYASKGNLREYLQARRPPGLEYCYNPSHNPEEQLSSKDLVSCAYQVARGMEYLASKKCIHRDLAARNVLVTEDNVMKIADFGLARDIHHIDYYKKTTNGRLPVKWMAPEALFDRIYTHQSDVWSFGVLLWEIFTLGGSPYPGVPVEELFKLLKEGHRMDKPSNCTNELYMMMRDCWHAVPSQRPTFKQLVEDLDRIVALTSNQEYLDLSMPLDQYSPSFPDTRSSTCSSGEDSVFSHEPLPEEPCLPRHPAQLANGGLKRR

`COc1cc(Nc2ncnc(-n3c(NCc4ccc(Cl)cc4)nc4ccccc43)n2)cc(OC)c1OC` [Compound 944]: the IC50 at Kdr is under 0.772 µM; at Itk it was over 8.69 µM; on FGFR1, 0.772 to 4.63 µM; on Src, over 8.69 µM; against Hck-1 it was over 8.69 µM; at EGFR, over 8.69 µM. In addition, the IC50 on Fyn was over 8.69 µM; on IGFR-1, 6.76 to 8.69 µM; against Lyn, 4.63 to 6.76 µM; on Flt-1, 0.772 to 4.63 µM; at ErbB4, over 8.69 µM; on Lck, over 8.69 µM. The IC50 at c-Met is over 8.69 µM; at Zap-70 it was over 8.69 µM; against Ret-1, under 0.772 µM; at ErbB2 it was over 8.69 µM; at AKT it was over 8.69 µM; on Tek it was over 8.69 µM. Besides, the IC50 on PDGFRB fell in the range of 0.772 to 4.63 µM.
As for `COc1cc(Nc2ncnc(-n3c(NCc4cccc(Br)c4)nc4ccccc43)n2)cc(OC)c1OC` [Compound 946], the IC50 on Kdr was 0.711 to 4.27 µM; at Itk, over 8 µM; at FGFR1, under 0.711 µM; at Src, over 8 µM; against Hck-1 it was over 8 µM; at EGFR it was 6.22 to 8 µM. Further, the IC50 on Fyn is over 8 µM; against IGFR-1, 4.27 to 6.22 µM; at Lyn, under 0.711 µM; at Flt-1 it was 0.711 to 4.27 µM; at ErbB4 it was over 8 µM; on Lck, 0.711 to 4.27 µM. The IC50 on c-Met was 6.22 to 8 µM; on Zap-70, over 8 µM; at Ret-1 it was 0.711 to 4.27 µM; on ErbB2, over 8 µM; at AKT it was over 8 µM; on Tek, over 8 µM. Besides, the IC50 on PDGFRB was under 0.711 µM.
Take `COc1cc(Nc2ncnc(-n3c(NCc4cccc(Cl)c4)nc4ccccc43)n2)cc(OC)c1OC` [Compound 949]: the IC50 on Kdr was under 0.772 µM; at Itk it was over 8.69 µM; on FGFR1, under 0.772 µM; against Src, over 8.69 µM; against Hck-1, over 8.69 µM; at EGFR, over 8.69 µM. The IC50 is over 8.69 µM on Fyn; 6.76 to 8.69 µM at IGFR-1; 0.772 to 4.63 µM at Lyn; under 0.772 µM against Flt-1; 0.772 to 4.63 µM at ErbB4; under 0.772 µM on Lck. Also, the IC50 was 6.76 to 8.69 µM on c-Met; over 8.69 µM on Zap-70; under 0.772 µM at Ret-1; over 8.69 µM at ErbB2; over 8.69 µM on AKT; over 8.69 µM on Tek. Moreover, the IC50 at PDGFRB was under 0.772 µM.
Consider `COc1cc(Nc2ncnc(-n3c(NCc4cccs4)nc4ccccc43)n2)cc(OC)c1OC` [Compound 950], for which the IC50 on Kdr was under 0.817 µM; at Itk, over 9.19 µM; at FGFR1, under 0.817 µM; at Src, 0.817 to 4.9 µM; against Hck-1, over 9.19 µM; at EGFR, 0.817 to 4.9 µM. The IC50 on Fyn was 0.817 to 4.9 µM; against IGFR-1 it was over 9.19 µM; at Lyn, under 0.817 µM; on Flt-1, under 0.817 µM; on ErbB4, 0.817 to 4.9 µM; on Lck it was under 0.817 µM. In addition, the IC50 was over 9.19 µM at c-Met; over 9.19 µM on Zap-70; under 0.817 µM on Ret-1; 0.817 to 4.9 µM on ErbB2; over 9.19 µM at AKT; 4.9 to 7.15 µM on Tek. In addition, the IC50 on PDGFRB was under 0.817 µM.
